Measurements from patent US20230069963A1, “PYRAZOLO[1,5-A]PYRIMIDINE MACROCYCLIC COMPOUND” (priority 2018, published 2023).
Counter-ions that a name gives are not always drawn.

tested on: RSV ATCC VR-1540 (A2); experiment: microbe, parasite or virus in culture; type: cell-based; details: human respiratory syncytial virus, HEp-2, 96 h; Hep2 cells, incubated for 4 days, CPE detected with XTT assay (absorbance 450 nm); read-out: EC50 (nmol/L) against RSV A2 strain

Row | SMILES | EC50 [nmol/L]
1 | CN1CCOc2ccc(Cl)cc2C(=O)N2CCCC[C@H]2c2cc3nc(N4CC(CN)C4)cc(n3n2)N(C)CC1 [Example 163, (18aS)-13-[3-(aminomethyl)azetidin-1-yl]-2-chloro-8,11-dimethyl-6,7,8,9,10,11,19,20,21,22-decahydro-18aH,24H-18,15-(metheno)pyrido[2,1-l]pyrimido[6,1-h][1,4,7,9,10,13]benzoxapentaazacyclohexadecin-24-one] | ~10
2 | Cc1ccc2c(c1)C(=O)N1CCCC[C@H]1c1cc3nc(N4CCC4)cc(n3n1)N(C)CCN(C)CCO2 [Example 173, (18aS)-13-(azetidin-1-yl)-2,8,11-trimethyl-6,7,8,9,10,11,19,20,21,22-decahydro-18aH,24H-18,15-(metheno)pyrido[2,1-l]pyrimido[6,1-h][1,4,7,9,10,13]benzoxapentaazacyclohexadecin-24-one] | 1.3
3 | Cc1ccc2c(c1)C(=O)N1CCCC[C@H]1c1cc3nc(N4CCC4)cc(n3n1)N(C)CCN(S(N)(=O)=O)CCO2 [Example 178, (18aS)-13-(azetidin-1-yl)-2,11-dimethyl-24-oxo-6,7,10,11,19,20,21,22-octahydro-8aH,24H-18,15-(metheno)pyrido[2,1-l]pyrimido[6,1-h][1,4,7,9,10,13]benzoxapentaazacyclohexadecine-8(9H)-sulfonamide] | 4.48
4 | Cc1ccc2c(c1)C(=O)N1CCCC[C@H]1c1cc3nc(N4CC(O)C4)cc(n3n1)N(C)CCN(S(C)(=O)=O)CCO2 [Example 179, (18aS)-13-(3-hydroxyazetidin-1-yl)-8-(methanesulfonyl)-2,11-dimethyl-6,7,8,9,10,11,19,20,21,22-decahydro-18aH,24H-18,15-(metheno)pyrido[2,1-l]pyrimido[6,1-h][1,4,7,9,10,13]benzoxapentaazacyclohexadecin-24-one] | 7.33
5 | Cc1ccc2c(c1)C(=O)N1CCCC[C@H]1c1cc3nc(N4CC(N)C4)cc(n3n1)N(C)CCN(S(C)(=O)=O)CCO2 [Example 180, (18aS)-13-(3-aminoazetidin-1-yl)-8-(methanesulfonyl)-2,11-dimethyl-6,7,8,9,10,11,19,20,21,22-decahydro-18aH,24H-18,15-(metheno)pyrido[2,1-l]pyrimido[6,1-h][1,4,7,9,10,13]benzoxapentaazacyclohexadecin-24-one] | 33
6 | Cc1ccc2c(c1)C(=O)N1CCCC[C@H]1c1cc3nc(NCCN)cc(n3n1)N(C)CCN(S(C)(=O)=O)CCO2 [Example 182, (18aS)-13-[(2-aminoethyl)amino]-8-(methanesulfonyl)-2,11-dimethyl-6,7,8,9,10,11,19,20,21,22-decahydro-18aH,24H-18,15-(metheno)pyrido[2,1-l]pyrimido[6,1-h][1,4,7,9,10,13]benzoxapentaazacyclohexadecin-24-one hydrochloride] | 14.2
7 | CCC1c2cc3nc(N4CC[C@H](N)C4)cc(n3n2)N(C)CCN(S(C)(=O)=O)CCOc2ccc(C)cc2C(=O)N1C (stereo partly drawn) [Example 195, (18S)-3-[(3S)-3-aminopyrrolidin-1-yl]-18-ethyl-8-(methanesulfonyl)-5,14,17-trimethyl-5,6,7,8,9,10,17,18-octahydro-16H-19,1-(metheno)pyrimido[6,1-h][1,4,7,9,11,13]benzoxapentaazacyclohexadecin-16-one] | 20.5
8 | CN1CCNCCOc2ccc(F)cc2C(=O)N2CCCC[C@H]2c2cc3nc(N4CCC4)c(F)c1n3n2 [Example 198, (18aS)-13-(azetidin-1-yl)-2,12-difluoro-11-methyl-6,7,8,9,10,11,19,20,21,22-decahydro-18aH,24H-18,15-(metheno)pyrido[2,1-l]pyrimido[6,1-h][1,4,7,9,10,13]benzoxapentaazacyclohexadecin-24-one] | 2.82
9 | CC[C@H]1c2cc3nc(NCC(C)(C)N)cc(n3n2)N(C)CCCCOc2ccc(C)cc2C(=O)N1C [Example 208, (17S)-3-[(2-amino-2-methylpropyl)amino]-17-ethyl-5,13,16-trimethyl-6,7,8,9,16,17-hexahydro-5H,15H-18,1-(metheno)pyrimido[6,1-g][1,6,8,9,12]benzoxatetraazacyclopentadecin-15-one hydrochloride] | 4.33
10 | CCC1c2cc3nc(N4CC[C@H](N)C4)cc(n3n2)N(C)CCCCOc2ccccc2C(=O)N1C (stereo partly drawn) [Example 213, (17S)-3-[(3S)-3-aminopyrrolidin-1-yl]-17-ethyl-5,16-dimethyl-6,7,8,9,16,17-hexahydro-5H,15H-18,1-(metheno)pyrimido[6,1-g][1,6,8,9,12]benzoxatetraazacyclopentadecin-S5-one] | 7.81
11 | CC[C@H]1c2cc3nc(N4CC[C@H](N)C4)cc(n3n2)N(C)CCCCN(C)c2ccc(C)cc2C(=O)N1C [Example 218, (17S)-3-[(3S)-3-aminopyrrolidin-1-yl]-17-ethyl-5,10,13,16-tetramethyl-5,6,7,8,9,10,16,17-octahydro-15H-18,1-(metheno)pyrimido[6,1-g][1,6,8,9,12]benzopentaazacyclopentadecin-15-one] | 9.8
12 | CC[C@H]1c2cc3nc(OC)c(C)c(n3n2)N(C)CCCCNc2ccc(C)cc2C(=O)N1C [Example 222a, (17S)-17-ethyl-3-methoxy-4,5,13,16-tetramethyl-5,6,7,8,9,10,16,17-octahydro-15H-18,1-(metheno)pyrimido[6,1-g][1,6,8,9,12]benzopentaazacyclopentadecin-15-one] | 7.17
13 | CC[C@H]1c2cc3nc(N4CC[C@H](N)C4)c(C)c(n3n2)N(C)CCCCNc2ccc(C)cc2C(=O)N1C [Example 223, (17S)-3-[(3S)-3-aminopyrrolidin-1-yl]-17-ethyl-4,5,13,16-tetramethyl-5,6,7,8,9,10,16,17-octahydro-15H-18,1-(metheno)pyrimido[6,1-g][1,6,8,9,12]benzopentaazacyclopentadecin-15-one] | 1.34
14 | CC[C@H]1c2cc3nc(N4CC[C@H](N)C4)c(C)c(n3n2)N(C)CCCCCOc2ccccc2C(=O)N1C [Example 233, (18S)-3-[(3S)-3-aminopyrrolidin-1-yl]-18-ethyl-4,5,17-trimethyl-5,6,7,8,9,10,17,18-octahydro-16H-19,1-(metheno)pyrimido[6,1-h][1,7,9,10,13]benzoxatetraazacyclohexadecin-16-one] | 39.5
15 | CC[C@H]1c2cc3nc(NCC(C)(C)N)c(C)c(n3n2)N(C)CCCCCOc2ccccc2C(=O)N1C [Example 234, (18S)-3-[(2-amino-2-methylpropyl)amino]-18-ethyl-4,5,17-trimethyl-5,6,7,8,9,10,17,18-octahydro-16H-19,1-(metheno)pyrimido[6,1-h][1,7,9,10,13]benzoxatetraazacyclohexadecin-16-one] | 6.77
16 | CC[C@H]1c2cc3nc(N4CC[C@H](N)C4)cc(n3n2)N(C)CCCOc2ccc(C)cc2C(=O)N1C [Example 238, (16S)-3-[(3S)-3-aminopyrrolidin-1-yl]-16-ethyl-5,12,15-trimethyl-5,6,7,8,15,16-hexahydro-14H-17,1-(metheno)pyrimido[6,1-f][1,5,7,8,11]benzoxatetraazacyclotetradecin-14-one] | 28
17 | Cc1ccc2c(c1)C(=O)N1CCCC[C@H]1c1cc3nc(NCCN)cc(n3n1)N(C)CCCCO2 [Example 245, (23aS)-18-[(2-aminoethyl)amino]-8,16-dimethyl-1,3,4,13,14,15,16,23a-octahydro-2H,6H,12H-23,20-(metheno)pyrido[2,1-k]pyrimido[6,1-g][1,6,8,9,12]benzoxatetraazacyclopentadecin-6-one hydrochloride] | 4.71
